Results from patent publication US20250270246A1, “LINCOSAMIDES AND USES THEREOF” (President and Fellows of Harvard College, priority 2022, published 2025).
Where a name gives a salt, the structure may show the parent alone. Read-outs that look alike come from different tables or passages of the source.

Legend:
[1] = test system: S. aureus Clinical (cfr); assay: MIC by broth microdilution (CLSI); format: cell-based; details: Staphylococcus aureus, 24 h, read-out: MIC S. aureus Clinical (cfr)
Method in brief: (§1)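 Lowest concentration (μg/mL) without visible bacterial growth after 24 h was taken as MIC, using CLSI microdilution at 5×10^5 CFU/mL in CaMHB. Chelex 100 treatment of the broth applied only to P. aeruginosa.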

[2] = test system: E. coli ATCC 25922 (HAV#006); assay: MIC by broth microdilution (CLSI); format: cell-based; details: Escherichia coli, ATCC25922, 24 h, read-out: MIC E. coli ATCC 25922
Method in brief: as §1

[3] = test system: E. faecalis ATCC 29212 (HAV#005); assay: MIC by broth microdilution (CLSI); format: cell-based; details: Enterococcus faecalis, ATCC29212, 24 h, read-out: MIC E. faecalis ATCC 29212
Method in brief: as §1

[4] = test system: S. aureus ATCC 29213 (HAV#001); assay: MIC by broth microdilution (CLSI); format: cell-based; details: Staphylococcus aureus, ATCC29213, 24 h, read-out: MIC S. aureus ATCC 29213
Method in brief: as §1

[5] = test system: E. coli ΔtolC; assay: MIC by broth microdilution (CLSI); format: cell-based; details: Escherichia coli, 24 h, read-out: MIC E. coli ΔtolC, ΔtolC; CaMHB, 24 h incubation
Method in brief: as §1

[6] = test system: K. pneumoniae JMI-991193; assay: MIC by broth microdilution (CLSI); format: cell-based; details: Klebsiella pneumoniae, JMI991193, 24 h, read-out: MIC K. pneumoniae JMI-991193
Method in brief: as §1

[7] = test system: E. coli lptD mutant; assay: MIC by broth microdilution (CLSI); format: cell-based; details: Escherichia coli, 24 h, read-out: MIC E. coli lptD mutant, lptD mutant / ΔlptD mutant; CaMHB, 24 h incubation
Method in brief: as §1

[8] = test system: S. aureus MMX 3035; assay: MIC by broth microdilution (CLSI); format: cell-based; details: Staphylococcus aureus, MMX3035, 24 h, read-out: MIC S. aureus MMX 3035
Method in brief: as §1

[9] = test system: E. coli Clinical (armA); assay: MIC by broth microdilution (CLSI); format: cell-based; details: Escherichia coli, 24 h, read-out: MIC E. coli Clinical (armA)
Method in brief: as §1

[10] = test system: S. aureus HAV#031, c-ermA; assay: MIC by broth microdilution (CLSI); format: cell-based; details: Staphylococcus aureus; c-ermA; CaMHB, 24 h incubation; read-out: MIC S. aureus HAV#031, c-ermA
Method in brief: as §1

[11] = test system: A. baumannii ATCC 19606 (HAV#010); assay: MIC by broth microdilution (CLSI); format: cell-based; details: Acinetobacter baumannii, ATCC19606, 24 h, HAV#010, ATCC 19606; CaMHB, 24 h incubation; read-out: MIC A. baumannii ATCC 19606
Method in brief: as §1

[12] = test system: S. aureus HAV#216, cfr; assay: MIC by broth microdilution (CLSI); format: cell-based; details: Staphylococcus aureus; cfr; CaMHB, 24 h incubation; read-out: MIC S. aureus HAV#216, cfr
Method in brief: as §1

[13] = test system: K. pneumoniae HAV#402, FQ-R; assay: MIC by broth microdilution (CLSI); format: cell-based; details: Klebsiella pneumoniae; FQ-R; CaMHB, 24 h incubation; read-out: MIC K. pneumoniae HAV#402, FQ-R
Method in brief: as §1

[14] = test system: E. faecium HAV#318, VRE; clinical; assay: MIC by broth microdilution (CLSI); format: cell-based; details: Enterococcus faecium, CaMHB, 24 h incubation, read-out: MIC E. faecium HAV#318, VRE
Method in brief: as §1

[15] = test system: E. coli HAV#038, ΔTolC; assay: MIC by broth microdilution (CLSI); format: cell-based; details: Escherichia coli, 24 h, read-out: MIC E. coli HAV#038, ΔTolC
Method in brief: as §1

[16] = test system: E. coli HAV#040, LptD; assay: MIC by broth microdilution (CLSI); format: cell-based; details: Escherichia coli, 24 h, read-out: MIC E. coli HAV#040, LptD
Method in brief: as §1

[17] = rcm bond, Grubbs II (20 mol%)/benzoquinone, toluene
[18] = HAV#006, ATCC 25922, CaMHB, 24 h incubation
[19] = HAV#001, ATCC 29213, CaMHB, 24 h incubation
[20] = HAV#005, ATCC 29212, CaMHB, 24 h incubation

Row | Compound | MIC [1] [µg/mL] | MIC [2] [µg/mL] | MIC [3] [µg/mL] | MIC [4] [µg/mL] | MIC [5] [µg/mL] | MIC [6] [µg/mL] | MIC [7] [µg/mL] | MIC [8] [µg/mL] | MIC [9] [µg/mL] | MIC [10] [µg/mL] | MIC [2, 18] [µg/mL] | MIC [4, 19] [µg/mL] | MIC [11] [µg/mL] | MIC [12] [µg/mL] | MIC [13] [µg/mL] | MIC [15] [µg/mL] | MIC [16] [µg/mL] | further results
1 | CC(C)C[C@@H]1CCO[C@@H]2[C@H](CN[C@@H]2C(=O)N[C@@H]2C/C=C\C[C@H](CN)S[C@H]3O[C@H]2[C@H](O)[C@H](O)[C@H]3O)C1 [FSA1608082, (4S,5aS,8S,8aR)—N-((1R,3R,8R,9R,10R,11S,12R,Z)-3-(aminomethyl)-10,11,12-trihydroxy-13-oxa-2-thiabicyclo[7.3.1]tridec-5-en-8-yl)-4-isobutyloctahydro-2H-oxepino[2,3-c]pyrrole-8-carboxamide hydrochloride salt] | 16 | 32 | 2 | 1 | 2 | > 64 | 1 | 16 | 64 | – | – | – | – | – | – | – | – | –
2 | CC(C)C[C@@H]1CCO[C@@H]2[C@H](CN[C@@H]2C(=O)N[C@H]2C3OC(SC/C=C\CC2(C)C)C(O)C(O)C3O)C1 (single isomer, unassigned) [FSA1504066B, formate salt] | – | – | – | – | – | – | – | – | – | 32 | 64 | 0.5 | 64 | > 64 | 64 | 32 | 64 | MIC [14]: 4 µg/mL
3 | CC(C)C[C@@H]1CCO[C@@H]2[C@H](CN[C@@H]2C(=O)N[C@@H]2C/C=C\C[C@@H](CN)S[C@H]3O[C@H]2[C@H](O)[C@H](O)[C@H]3O)C1 [FSA1608083, (4S,5aS,8S,8aR)—N-((1R,3S,8R,9R,10R,11S,12R,Z)-3-(aminomethyl)-10,11,12-trihydroxy-13-oxa-2-thiabicyclo[7.3.1]tridec-5-en-8-yl)-4-isobutyloctahydro-2H-oxepino[2,3-c]pyrrole-8-carboxamide hydrochloride salt] | 32 | 16 | 1 | 1 | 2 | > 64 | 1 | 16 | 64 | – | – | – | – | – | – | – | – | –
4 | C[C@@H]1/C=C\CCS[C@H]2O[C@H]([C@@H]1N[S@](=O)C(C)(C)C)[C@H](OC(=O)c1ccccc1)[C@H](OC(=O)c1ccccc1)[C@H]2OC(=O)c1ccccc1 | – | – | – | – | – | – | – | – | – | – | – | – | – | – | – | – | – | ring closure, isolated yield ([17]; from C=CCCS[C@H]1O[C@H]([C@H](N[S@](=O)C(C)(C)C)[C@H](C)C=C)[C@H](OC(=O)c2ccccc2)[C@H](OC(=O)c2ccccc2)[C@H]1OC(=O)c1ccccc1, 10-membered ring, 0.2 mM, 0.33 h): 19%
5 | CC(C)C[C@@H]1CCO[C@@H]2[C@H](CN[C@@H]2C(=O)N[C@H]2[C@H]3O[C@H](SCCCCC2(C)C)[C@H](O)[C@@H](O)[C@H]3O)C1 [FSA1504068, (4S,5aS,8S,8aR)-4-isobutyl-N-((1R,8R,9R,10R,11S,12R)-10,11,12-trihydroxy-7,7-dimethyl-13-oxa-2-thiabicyclo[7.3.1]tridecan-8-yl) octahydro-2H-oxepino[2,3-c]pyrrole-8-carboxamide formate salt] | – | – | – | – | – | – | – | – | – | > 64 | 64 | 0.5 | > 64 | > 64 | > 64 | 32 | 64 | MIC [3, 20]: 2 µg/mL
6 | CC(C)C[C@@H]1CCO[C@@H]2[C@H](CN[C@@H]2C(=O)N[C@H]2[C@H]3O[C@H](S[C@H](CF)C/C=C\[C@H]2C)[C@H](O)[C@@H](O)[C@H]3O)C1 [FSA1609034, (4S,5aS,8S,8aR)—N-((1R,3S,7R,8R,9R,10R,11S,12R,Z)-3-(fluoromethyl)-10,11,12-trihydroxy-7-methyl-13-oxa-2-thiabicyclo[7.3.1]tridec-5-en-8-yl)-4-isobutyloctahydro-2H-oxepino[2,3-c]pyrrole-8-carboxamide formate salt] | 0.25 | 1 | ≤ 0.06 | ≤ 0.06 | ≤ 0.06 | 2 | 0.25 | 0.25 | 2 | – | – | – | – | – | – | – | – | –
7 | CC(C)C[C@@H]1CCO[C@@H]2[C@H](CN[C@@H]2C(=O)N[C@@H]2C/C=C\C[C@H](CNC(=O)c3ccc(F)cc3)S[C@H]3O[C@H]2[C@H](O)[C@H](O)[C@H]3O)C1 [FSA1608089, (4S,5aS,8S,8aR)—N-((1R,3R,8R,9R,10R,11S,12R,Z)-3-((4-fluorobenzamido)methyl)-10,11,12-trihydroxy-13-oxa-2-thiabicyclo[7.3.1]tridec-5-en-8-yl)-4-isobutyloctahydro-2H-oxepino[2,3-c]pyrrole-8-carboxamide formate salt] | 8 | 16 | 1 | 2 | 2 | > 64 | 1 | 8 | 64 | – | – | – | – | – | – | – | – | –
8 | CC(=O)O[C@@H]1[C@H](OC(C)=O)[C@@H](OC(C)=O)[C@@H]2O[C@@H]1[C@H](N[S@](=O)C(C)(C)C)C(C)/C=C/CCCS2 (mixture of isomers) | – | – | – | – | – | – | – | – | – | – | – | – | – | – | – | – | – | ring closure, isolated yield ([17]; from C=CCCCS[C@H]1O[C@H]([C@H](N[S@](=O)C(C)(C)C)[C@H](C)C=C)[C@H](OC(C)=O)[C@H](OC(C)=O)[C@H]1OC(C)=O, 11-membered ring, 1.9 mM, 0.25 h): 85%
9 | CC(C)C[C@@H]1CCO[C@@H]2[C@H](CN[C@@H]2C(=O)N[C@H]2[C@H]3OC(SC/C=C/CC2(C)C)[C@H](O)C(O)C3O)C1 (single isomer, unassigned) [FSA1504066A, formate salt] | – | – | – | – | – | – | – | – | – | 4 | 32 | ≤ 0.06 | 8 | > 64 | 32 | 1 | 2 | MIC [14]: 1 µg/mL
10 | CC(C)C[C@@H]1CCO[C@@H]2[C@H](CN[C@@H]2C(=O)N[C@@H]2CC(C)(C)/C=C/CS[C@H]3O[C@H]2[C@H](O)[C@H](O)[C@H]3O)C1 [FSA1503085, (4S,5aS,8S,8aR)-4-isobutyl-N-((1R,8R,9R,10R,11S,12R,E)-10,11,12-trihydroxy-6,6-dimethyl-13-oxa-2-thiabicyclo[7.3.1]tridec-4-en-8-yl) octahydro-2H-oxepino[2,3-c]pyrrole-8-carboxamide formate salt] | – | – | – | – | – | – | – | – | – | 32 | 64 | 0.25 | 64 | 8 | > 64 | 4 | 8 | MIC [3, 20]: 0.25 µg/mL
11 | CC(C)C[C@@H]1CCO[C@@H]2[C@H](CN[C@@H]2C(=O)N[C@@H]2C/C=C\C[C@@H](CNC(=O)c3ccc(F)cc3)S[C@H]3O[C@H]2[C@H](O)[C@H](O)[C@H]3O)C1 [FSA1608088, (4S,5aS,8S,8aR)—N-((1R,3S,8R,9R,10R,11S,12R,Z)-3-((4-fluorobenzamido)methyl)-10,11,12-trihydroxy-13-oxa-2-thiabicyclo[7.3.1]tridec-5-en-8-yl)-4-isobutyloctahydro-2H-oxepino[2,3-c]pyrrole-8-carboxamide formate salt] | 8 | 8 | 1 | 1 | 2 | 32 | 0.5 | 8 | 16 | – | – | – | – | – | – | – | – | –
